Patent US9821173B2, “Anti-cancer agents and methods of use” (Case Western Reserve University, priority 2013, dated 2017)

How the values were obtained:
[1] = system: γH2AX foci in HeLa cells; details: 2 Gy IR, compound 4 7 μM; for number of γH2AX foci 30 minutes post IR exposure: compound 3 4 μM
Method: HeLa cells were plated at a density of 40,000 cells/ml in 24-well glass bottom plate for 24 hr. After this time, cells were treated with Au(I)indole compounds at desired concentration for an additional 24 hr. The cells were irradiated at 2 Gys. Cells were fixed with 4% paraformaldehyde for 15 min at 37° C. at time points corresponding to 0.5, 1, 2, and 4 hrs. Cells were washed with 1×PBS and permeabilized in 0.2% Triton X-100 for 15 min at 37° C. […] Mouse monoclonal anti-phospho-histone H2AX antibody (Millipore) was applied (1:500 dilution) to each well for one hour. After washing several times with blocking buffer, a 1:500 dilution of goat anti-mouse secondary antibody conjugated with Alexa 647 (Invitrogen) was added for 1 hr. The wells were then washed several times, and the number of γH2AX foci per nuclei was measured using an iCyte laser scanning cytometer with a red long pass filter (650 nm). To collect accurate data, a threshold was set to minimize noise produced by unrelated events using iNovator software (version 3.4.2.52). Each well was scanned using a 40× magnification with 0.25 μm× step and a field size of 250×186 μm (1000×768 pixels). Data were plotted as the percentage of cells as a function of foci number. The resulting histogram was fit to the equation for a Gaussian distribution (Equation 2). Y=1/(2πσ^2)^1/2e^−[(χ−m)2/2σ2] (2)
where Y is the percentage of cells, μ is the mean, and σ is the variance used to define the width of the mean.

[2] = target: T1, YSK1 (Homo sapiens, UniProt O00506); experiment: Kinase inhibition screening (Luceome); type: biochemical; details: 10 μM
T1 construct: purchased Luceome Biotechnologies (Tucson, Ariz.)
Excerpt: (§1) It is well established that dysfunctional and unregulated kinase activity plays significant roles in cancer initiation and progression. […] Inspection of the data provides several interesting observations. […] These inhibitory effects at this concentration are consistent with their measured IC50 values that are also in the μM range (Table 1). In addition, several kinases display overlapping inhibitory responses to both gold(I) compounds. Many of these are of particular interest since they are involved in cancer initiation and/or progression. For example, the Aurora kinase family members, Aurora A and Aurora B, as well as the MARK2 and MARK3 kinases function during mitosis to regulate cell division. These kinases are important therapeutic targets as their activities are often deregulated in many types of cancers. Other kinases such as RPS6KA3 and MLK3 are involved in the MAP kinase and JNK pathways which are also important in cancer progression.

[3] = target: T2, SNARK (Homo sapiens, UniProt Q9H093); experiment: Kinase inhibition screening (Luceome); type: biochemical; details: 10 μM
T2 construct: purchased Luceome Biotechnologies (Tucson, Ariz.)
Excerpt: as §1

[4] = target: T3, SRC (Homo sapiens, UniProt P12931); experiment: Kinase inhibition screening (Luceome); type: biochemical; details: 10 μM
T3 construct: purchased Luceome Biotechnologies (Tucson, Ariz.)
Excerpt: as §1

[5] = target: T4, AURKB (Homo sapiens, UniProt Q96GD4); experiment: Kinase inhibition screening (Luceome); type: biochemical; details: 10 μM
T4 construct: purchased Luceome Biotechnologies (Tucson, Ariz.)
Excerpt: as §1

[6] = target: T5, MLK3 (Homo sapiens, UniProt Q16584); experiment: Kinase inhibition screening (Luceome); type: biochemical; details: 10 μM
T5 construct: purchased Luceome Biotechnologies (Tucson, Ariz.)
Excerpt: as §1

[7] = target: T6, PKG1 (Homo sapiens, UniProt Q13976); experiment: Kinase inhibition screening (Luceome); type: biochemical; details: 10 μM
T6 construct: purchased Luceome Biotechnologies (Tucson, Ariz.)
Excerpt: as §1

[8] = target: T7, MARK3 (Homo sapiens, UniProt P27448); experiment: Kinase inhibition screening (Luceome); type: biochemical; details: 10 μM
T7 construct: purchased Luceome Biotechnologies (Tucson, Ariz.)
Excerpt: as §1

[9] = target: T8, FLT1 (Homo sapiens, UniProt P17948); experiment: Kinase inhibition screening (Luceome); type: biochemical; details: 10 μM
T8 construct: purchased Luceome Biotechnologies (Tucson, Ariz.)
Excerpt: as §1

[10] = target: T9, AKT2 (Homo sapiens, UniProt P31751); experiment: Kinase inhibition screening (Luceome); type: biochemical; details: 10 μM
T9 construct: purchased Luceome Biotechnologies (Tucson, Ariz.)
Excerpt: as §1

[11] = target: T10, CAM1G (Homo sapiens, UniProt Q96NX5); experiment: Kinase inhibition screening (Luceome); type: biochemical; details: 10 μM
T10 construct: purchased Luceome Biotechnologies (Tucson, Ariz.)
Excerpt: as §1

[12] = target: T11, RPS6KA4 (Homo sapiens, UniProt O75676); experiment: Kinase inhibition screening (Luceome); type: biochemical; details: 10 μM
T11 construct: purchased Luceome Biotechnologies (Tucson, Ariz.)
Excerpt: as §1

[13] = target: T12, PKAC-α (Homo sapiens, UniProt P17612); experiment: Kinase inhibition screening (Luceome); type: biochemical; details: 10 μM
T12 construct: purchased Luceome Biotechnologies (Tucson, Ariz.)
Excerpt: as §1

[14] = target: T13, SNF1LK (Homo sapiens, UniProt P57059); experiment: Kinase inhibition screening (Luceome); type: biochemical; details: 10 μM
T13 construct: purchased Luceome Biotechnologies (Tucson, Ariz.)
Excerpt: as §1

[15] = target: T14, AKT1 (Homo sapiens, UniProt P31749); experiment: Kinase inhibition screening (Luceome); type: biochemical; details: 10 μM
T14 construct: purchased Luceome Biotechnologies (Tucson, Ariz.)
Excerpt: as §1

[16] = target: T15, AURKA (Homo sapiens, UniProt O14965); experiment: Kinase inhibition screening (Luceome); type: biochemical; details: 10 μM
T15 construct: purchased Luceome Biotechnologies (Tucson, Ariz.)
Excerpt: as §1

[17] = target: T16, PAK1 (Homo sapiens, UniProt Q13153); experiment: Kinase inhibition screening (Luceome); type: biochemical; details: 10 μM
T16 construct: purchased Luceome Biotechnologies (Tucson, Ariz.)
Excerpt: as §1

[18] = target: T17, AKT3 (Homo sapiens, UniProt Q9Y243); experiment: Kinase inhibition screening (Luceome); type: biochemical; details: 10 μM
T17 construct: purchased Luceome Biotechnologies (Tucson, Ariz.)
Excerpt: as §1

[19] = target: T18, SNF1LK2 (Homo sapiens, UniProt Q9H0K1); experiment: Kinase inhibition screening (Luceome); type: biochemical; details: 10 μM
T18 construct: purchased Luceome Biotechnologies (Tucson, Ariz.)
Excerpt: as §1

[20] = target: T19, SYK (Homo sapiens, UniProt P43405); experiment: Kinase inhibition screening (Luceome); type: biochemical; details: 10 μM
T19 construct: purchased Luceome Biotechnologies (Tucson, Ariz.)
Excerpt: as §1

[21] = target: T20, TNK2 (Homo sapiens, UniProt Q07912); experiment: Kinase inhibition screening (Luceome); type: biochemical; details: 10 μM
T20 construct: purchased Luceome Biotechnologies (Tucson, Ariz.)
Excerpt: as §1

[22] = target: T21, FGFR2 (Homo sapiens, UniProt P21802); experiment: Kinase inhibition screening (Luceome); type: biochemical; details: 10 μM
T21 construct: purchased Luceome Biotechnologies (Tucson, Ariz.)
Excerpt: as §1

[23] = target: T22, SLK (Homo sapiens, UniProt Q9H2G2); experiment: Kinase inhibition screening (Luceome); type: biochemical; details: 10 μM
T22 construct: purchased Luceome Biotechnologies (Tucson, Ariz.)
Excerpt: as §1

[24] = target: T23, RPS6KA5 (Homo sapiens, UniProt O75582); experiment: Kinase inhibition screening (Luceome); type: biochemical; details: 10 μM
T23 construct: purchased Luceome Biotechnologies (Tucson, Ariz.)
Excerpt: as §1

[25] = target: T24, CAMKK1 (Homo sapiens, UniProt Q8N5S9); experiment: Kinase inhibition screening (Luceome); type: biochemical; details: 10 μM
T24 construct: purchased Luceome Biotechnologies (Tucson, Ariz.)
Excerpt: as §1

[26] = target: T25, PRS6KA1 (Homo sapiens, UniProt Q15418); experiment: Kinase inhibition screening (Luceome); type: biochemical; details: 10 μM
T25 construct: purchased Luceome Biotechnologies (Tucson, Ariz.)
Excerpt: as §1

[27] = target: T26, MST2 (Homo sapiens, UniProt Q13188); experiment: Kinase inhibition screening (Luceome); type: biochemical; details: 10 μM
T26 construct: purchased Luceome Biotechnologies (Tucson, Ariz.)
Excerpt: as §1

[28] = target: T27, PDK1 (Homo sapiens, UniProt O15530); experiment: Kinase inhibition screening (Luceome); type: biochemical; details: 10 μM
T27 construct: purchased Luceome Biotechnologies (Tucson, Ariz.)
Excerpt: as §1

[29] = target: T28, AURKC (Homo sapiens, UniProt Q9UQB9); experiment: Kinase inhibition screening (Luceome); type: biochemical; details: 10 μM
T28 construct: purchased Luceome Biotechnologies (Tucson, Ariz.)
Excerpt: as §1

[30] = target: T29, CAMKK2 (Homo sapiens, UniProt Q96RR4); experiment: Kinase inhibition screening (Luceome); type: biochemical; details: 10 μM
T29 construct: purchased Luceome Biotechnologies (Tucson, Ariz.)
Excerpt: as §1

[31] = target: T30, CAMK1D (Homo sapiens, UniProt Q8IU85); experiment: Kinase inhibition screening (Luceome); type: biochemical; details: 10 μM
T30 construct: purchased Luceome Biotechnologies (Tucson, Ariz.)
Excerpt: as §1

[32] = target: T31, PKC-δ (Homo sapiens, UniProt Q05655); experiment: Kinase inhibition screening (Luceome); type: biochemical; details: 10 μM
T31 construct: purchased Luceome Biotechnologies (Tucson, Ariz.)
Excerpt: as §1

[33] = target: T32, CAMK2D (Homo sapiens, UniProt Q13557); experiment: Kinase inhibition screening (Luceome); type: biochemical; details: 10 μM
T32 construct: purchased Luceome Biotechnologies (Tucson, Ariz.)
Excerpt: as §1

T9 sequence (P31751 whole entry): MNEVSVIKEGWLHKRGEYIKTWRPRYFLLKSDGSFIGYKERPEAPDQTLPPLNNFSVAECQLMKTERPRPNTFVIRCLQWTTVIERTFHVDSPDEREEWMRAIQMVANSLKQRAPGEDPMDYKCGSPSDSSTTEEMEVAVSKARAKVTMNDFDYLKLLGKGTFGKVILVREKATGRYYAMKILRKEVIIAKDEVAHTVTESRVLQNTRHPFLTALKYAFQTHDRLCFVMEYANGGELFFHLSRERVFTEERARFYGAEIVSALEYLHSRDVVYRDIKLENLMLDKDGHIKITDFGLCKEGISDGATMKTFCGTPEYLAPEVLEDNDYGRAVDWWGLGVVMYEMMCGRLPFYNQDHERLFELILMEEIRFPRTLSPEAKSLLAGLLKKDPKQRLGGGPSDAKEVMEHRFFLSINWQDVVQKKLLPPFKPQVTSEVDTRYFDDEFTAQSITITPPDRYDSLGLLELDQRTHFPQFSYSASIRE
T26 sequence (Q13188 whole entry): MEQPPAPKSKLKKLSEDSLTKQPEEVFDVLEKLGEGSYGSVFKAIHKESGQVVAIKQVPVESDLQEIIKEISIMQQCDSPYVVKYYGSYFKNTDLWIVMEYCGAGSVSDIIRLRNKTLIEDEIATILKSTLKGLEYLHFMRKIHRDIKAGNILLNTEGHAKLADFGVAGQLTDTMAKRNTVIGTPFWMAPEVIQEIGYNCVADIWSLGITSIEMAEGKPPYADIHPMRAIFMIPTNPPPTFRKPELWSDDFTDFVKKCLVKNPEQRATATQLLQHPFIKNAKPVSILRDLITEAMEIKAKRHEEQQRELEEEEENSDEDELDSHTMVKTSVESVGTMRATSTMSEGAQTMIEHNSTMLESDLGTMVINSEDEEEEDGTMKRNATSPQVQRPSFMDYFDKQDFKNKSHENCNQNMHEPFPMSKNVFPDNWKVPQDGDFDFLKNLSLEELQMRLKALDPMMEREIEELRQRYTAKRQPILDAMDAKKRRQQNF
T22 sequence (Q9H2G2 whole entry): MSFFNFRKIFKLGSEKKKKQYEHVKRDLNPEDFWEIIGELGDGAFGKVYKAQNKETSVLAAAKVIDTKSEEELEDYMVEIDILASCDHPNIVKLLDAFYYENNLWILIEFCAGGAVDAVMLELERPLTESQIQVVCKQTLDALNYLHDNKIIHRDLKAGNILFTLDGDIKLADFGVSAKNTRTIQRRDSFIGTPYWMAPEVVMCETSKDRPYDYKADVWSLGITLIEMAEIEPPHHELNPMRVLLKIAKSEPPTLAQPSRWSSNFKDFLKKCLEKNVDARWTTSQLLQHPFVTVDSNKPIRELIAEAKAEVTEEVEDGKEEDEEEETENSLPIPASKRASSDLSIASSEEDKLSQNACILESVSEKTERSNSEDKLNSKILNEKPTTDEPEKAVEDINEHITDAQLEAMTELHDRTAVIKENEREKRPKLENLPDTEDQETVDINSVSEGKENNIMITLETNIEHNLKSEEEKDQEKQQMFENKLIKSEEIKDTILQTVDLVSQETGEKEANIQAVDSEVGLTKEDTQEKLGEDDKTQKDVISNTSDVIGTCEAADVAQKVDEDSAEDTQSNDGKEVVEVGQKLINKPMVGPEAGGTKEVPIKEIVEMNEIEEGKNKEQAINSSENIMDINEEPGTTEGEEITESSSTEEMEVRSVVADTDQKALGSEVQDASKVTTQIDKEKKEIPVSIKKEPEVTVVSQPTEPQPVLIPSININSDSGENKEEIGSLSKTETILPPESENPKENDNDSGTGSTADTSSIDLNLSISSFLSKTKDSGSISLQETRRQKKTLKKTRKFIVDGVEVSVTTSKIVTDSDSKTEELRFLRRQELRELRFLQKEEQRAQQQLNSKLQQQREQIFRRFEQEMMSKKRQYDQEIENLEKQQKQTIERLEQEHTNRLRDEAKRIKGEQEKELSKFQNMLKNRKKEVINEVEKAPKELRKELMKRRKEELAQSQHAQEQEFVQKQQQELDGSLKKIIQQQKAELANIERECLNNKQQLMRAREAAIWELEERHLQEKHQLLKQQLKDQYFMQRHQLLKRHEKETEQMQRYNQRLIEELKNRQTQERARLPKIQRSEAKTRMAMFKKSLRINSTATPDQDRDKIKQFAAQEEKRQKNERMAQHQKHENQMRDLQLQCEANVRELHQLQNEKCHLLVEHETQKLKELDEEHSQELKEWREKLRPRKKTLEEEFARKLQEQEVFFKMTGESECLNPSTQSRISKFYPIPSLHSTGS
T5 sequence (Q16584 whole entry): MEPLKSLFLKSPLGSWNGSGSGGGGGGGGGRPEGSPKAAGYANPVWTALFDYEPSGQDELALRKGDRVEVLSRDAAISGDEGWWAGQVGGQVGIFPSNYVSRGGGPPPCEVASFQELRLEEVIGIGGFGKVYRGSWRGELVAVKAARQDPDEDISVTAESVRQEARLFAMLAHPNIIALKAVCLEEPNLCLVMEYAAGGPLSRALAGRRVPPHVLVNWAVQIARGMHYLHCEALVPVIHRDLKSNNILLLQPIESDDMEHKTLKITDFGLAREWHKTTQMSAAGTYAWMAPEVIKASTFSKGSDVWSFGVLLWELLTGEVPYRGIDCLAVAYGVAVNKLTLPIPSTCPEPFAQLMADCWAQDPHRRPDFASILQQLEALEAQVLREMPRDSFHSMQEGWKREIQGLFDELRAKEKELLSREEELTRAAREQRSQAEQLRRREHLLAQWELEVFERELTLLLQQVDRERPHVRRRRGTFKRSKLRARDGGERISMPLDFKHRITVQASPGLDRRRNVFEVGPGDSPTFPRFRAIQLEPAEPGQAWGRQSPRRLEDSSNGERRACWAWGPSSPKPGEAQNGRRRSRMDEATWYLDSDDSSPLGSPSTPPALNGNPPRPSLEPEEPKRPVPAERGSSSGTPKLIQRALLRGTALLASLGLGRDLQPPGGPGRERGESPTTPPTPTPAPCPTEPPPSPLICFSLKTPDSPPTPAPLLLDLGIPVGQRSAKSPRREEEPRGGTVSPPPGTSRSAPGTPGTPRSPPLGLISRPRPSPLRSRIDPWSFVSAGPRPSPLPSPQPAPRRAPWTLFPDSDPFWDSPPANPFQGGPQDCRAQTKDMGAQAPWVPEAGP
T2 sequence (Q9H093 whole entry): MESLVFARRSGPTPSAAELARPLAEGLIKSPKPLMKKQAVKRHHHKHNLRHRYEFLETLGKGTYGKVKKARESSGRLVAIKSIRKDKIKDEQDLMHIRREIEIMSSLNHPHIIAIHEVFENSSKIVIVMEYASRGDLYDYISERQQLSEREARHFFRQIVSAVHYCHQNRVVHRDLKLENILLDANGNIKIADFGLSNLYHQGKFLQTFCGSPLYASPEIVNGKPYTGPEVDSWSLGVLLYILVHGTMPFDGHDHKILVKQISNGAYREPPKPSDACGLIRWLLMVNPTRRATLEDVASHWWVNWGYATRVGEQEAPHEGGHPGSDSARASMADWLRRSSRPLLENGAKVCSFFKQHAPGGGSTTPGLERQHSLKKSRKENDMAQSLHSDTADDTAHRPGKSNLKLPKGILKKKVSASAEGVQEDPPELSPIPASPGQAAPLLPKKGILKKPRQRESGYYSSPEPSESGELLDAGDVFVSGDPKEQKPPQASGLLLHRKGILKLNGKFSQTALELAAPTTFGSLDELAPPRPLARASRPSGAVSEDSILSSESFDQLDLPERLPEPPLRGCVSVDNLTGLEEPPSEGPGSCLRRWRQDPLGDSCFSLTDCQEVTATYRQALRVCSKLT
T16 sequence (Q13153 whole entry): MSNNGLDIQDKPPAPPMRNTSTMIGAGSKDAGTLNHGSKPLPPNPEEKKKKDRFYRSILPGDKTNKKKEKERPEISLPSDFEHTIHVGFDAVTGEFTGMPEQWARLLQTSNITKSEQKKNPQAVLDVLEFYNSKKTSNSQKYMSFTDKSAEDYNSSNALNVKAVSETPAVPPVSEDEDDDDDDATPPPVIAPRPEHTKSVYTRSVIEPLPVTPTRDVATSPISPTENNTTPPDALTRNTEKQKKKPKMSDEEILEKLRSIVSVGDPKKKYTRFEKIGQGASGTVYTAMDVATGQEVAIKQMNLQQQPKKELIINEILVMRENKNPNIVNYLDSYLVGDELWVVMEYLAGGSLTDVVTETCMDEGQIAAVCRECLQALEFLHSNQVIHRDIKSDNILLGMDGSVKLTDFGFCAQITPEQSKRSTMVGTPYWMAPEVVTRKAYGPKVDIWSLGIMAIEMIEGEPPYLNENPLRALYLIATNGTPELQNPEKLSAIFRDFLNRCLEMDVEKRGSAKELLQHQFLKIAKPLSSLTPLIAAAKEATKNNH
T15 sequence (O14965 whole entry): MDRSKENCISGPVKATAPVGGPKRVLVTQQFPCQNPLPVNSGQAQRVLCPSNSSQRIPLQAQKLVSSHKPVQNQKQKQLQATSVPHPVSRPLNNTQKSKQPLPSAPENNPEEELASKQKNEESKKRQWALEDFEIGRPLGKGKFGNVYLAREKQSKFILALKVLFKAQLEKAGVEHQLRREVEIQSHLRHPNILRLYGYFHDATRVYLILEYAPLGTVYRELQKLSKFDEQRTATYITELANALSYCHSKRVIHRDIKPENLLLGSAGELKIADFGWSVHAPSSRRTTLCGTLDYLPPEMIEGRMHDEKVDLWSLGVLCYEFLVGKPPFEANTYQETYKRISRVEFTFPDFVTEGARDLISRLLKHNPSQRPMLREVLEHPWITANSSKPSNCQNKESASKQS
T30 sequence (Q8IU85 whole entry): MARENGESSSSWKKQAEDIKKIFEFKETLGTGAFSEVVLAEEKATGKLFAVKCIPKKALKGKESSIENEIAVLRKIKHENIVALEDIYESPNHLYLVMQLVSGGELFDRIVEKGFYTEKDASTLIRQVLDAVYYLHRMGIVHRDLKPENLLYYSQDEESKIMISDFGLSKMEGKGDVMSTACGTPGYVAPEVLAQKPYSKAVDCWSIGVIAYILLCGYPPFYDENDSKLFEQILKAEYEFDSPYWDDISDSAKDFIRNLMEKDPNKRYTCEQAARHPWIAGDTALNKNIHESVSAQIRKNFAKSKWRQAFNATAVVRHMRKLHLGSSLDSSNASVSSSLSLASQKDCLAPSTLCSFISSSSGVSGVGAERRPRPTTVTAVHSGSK

Compound | number of γH2AX foci 30 minutes post IR exposure [1] | % Inhibition YSK1 [2] [%] | % Inhibition SNARK [3] [%] | % Inhibition SRC [4] [%] | % Inhibition AURKB [5] [%] | % Inhibition MLK3 [6] [%] | % Inhibition PKG1 [7] [%] | % Inhibition MARK3 [8] [%] | % Inhibition FLT1 [9] [%] | % Inhibition AKT2 [10] [%] | % Inhibition CAM1G [11] [%] | % Inhibition RPS6KA4 [12] [%] | % Inhibition PKAC-α [13] [%] | % Inhibition SNF1LK [14] [%] | % Inhibition AKT1 [15] [%] | % Inhibition AURKA [16] [%] | % Inhibition PAK1 [17] [%] | % Inhibition AKT3 [18] [%] | % Inhibition SNF1LK2 [19] [%] | % Inhibition SYK [20] [%] | other results
CC(C)(C)OC(=O)n1ccc2c[c]([Au-][P+](c3ccccc3)(c3ccccc3)c3ccccc3)ccc21 [Compound 3, 5-{Triphenylphosphine aurate(I)}-tert-butyl1H-indole-1-carboxylate] | lower numbers of γH2AX foci | 0 | 0 | 14.3 | 11.1 | 31.2 | 5.4 | 6.5 | 18.9 | 25.8 | 0 | 1.0 | 0 | 0 | 0 | 26.7 | 0 | 0 | 0 | 21.6 | % Inhibition TNK2 [21]: 0%; % Inhibition FGFR2 [22]: 5.1%; % Inhibition SLK [23]: 0%; % Inhibition RPS6KA5 [24]: 0%; % Inhibition CAMKK1 [25]: 0%; % Inhibition PRS6KA1 [26]: 0%; % Inhibition MST2 [27]: 0%; % Inhibition PDK1 [28]: 17.4%; % Inhibition AURKC [29]: 23.9%; % Inhibition CAMKK2 [30]: 0%; % Inhibition CAMK1D [31]: 0%; % Inhibition PKC-δ [32]: 0%; % Inhibition CAMK2D [33]: 0%
CC(C)(C)OC(=O)n1ccc2c[c]([Au-][P+](C3CCCCC3)(C3CCCCC3)C3CCCCC3)ccc21 [Compound 4, 5-{Tricyclohexylphosphine aurate(I)}-tert-butyl1H-indole-1-carboxylate] | increase in the number of γH2AX foci | 20.9 | 39.5 | 5.2 | 24.5 | 43 | 3.2 | 34 | 9.4 | 33.6 | 0 | 21.8 | 12.4 | 40.6 | 0 | 41.7 | 0 | 0 | 32.9 | 40.7 | γH2AX foci 4 hours after IR exposure [1]: a significant number of γH2AX foci persist; % Inhibition TNK2 [21]: 2.2%; % Inhibition FGFR2 [22]: 0%; % Inhibition SLK [23]: 19.6%; % Inhibition RPS6KA5 [24]: 5.0%; % Inhibition CAMKK1 [25]: 0%; % Inhibition PRS6KA1 [26]: 0%; % Inhibition MST2 [27]: 0%; % Inhibition PDK1 [28]: 24.3%; % Inhibition AURKC [29]: 35.0%; % Inhibition CAMKK2 [30]: 7.9%; % Inhibition CAMK1D [31]: 0%; % Inhibition PKC-δ [32]: 3.8%; % Inhibition CAMK2D [33]: 0%
